{"source": "ChEMBL document CHEMBL3112559", "about": "“Photodynamic inactivation of bioluminescent Escherichia coli by neutral and cationic pyrrolidine-fused chlorins and isobacteriochlorins” (Bioorg Med Chem Lett, 2014)", "key": {"Escherichia coli [1]": {"test_system": "Escherichia coli", "experiment": "Antibacterial activity against Escherichia coli transfected with Vibrio fischeri lux operon assessed as log reduction of bioluminescence at 20 uM incubated for 10 mins in dark followed by 43.2 J cm'-2 white light irradiation for 180 mins by luminometry relative to control", "assay_type": "functional"}, "Escherichia coli [2]": {"test_system": "Escherichia coli", "experiment": "Dark toxicity in recombinant Escherichia coli transfected with Vibrio fischeri lux operon at 20 uM after 10 mins by luminometry", "assay_type": "organism-based", "conditions": "in vivo"}, "Escherichia coli [3]": {"test_system": "Escherichia coli", "experiment": "Antibacterial activity against Escherichia coli assessed as log reduction of bioluminescence at 1 uM incubated for 30 mins followed by 10 J cm'-2 laser light irradiation relative to control", "assay_type": "functional"}, "Staphylococcus aureus": {"test_system": "Staphylococcus aureus", "experiment": "Antibacterial activity against Staphylococcus aureus assessed as log reduction of bioluminescence at 1 uM incubated for 30 mins followed by 10 J cm'-2 laser light irradiation relative to control", "assay_type": "functional"}, "Escherichia coli [4]": {"test_system": "Escherichia coli", "experiment": "Antibacterial activity against Escherichia coli transfected with Vibrio fischeri lux operon assessed as log reduction of bioluminescence at 5 uM incubated for 10 mins in dark followed by 43.2 J cm'-2 white light irradiation for 180 mins by luminometry relative to control", "assay_type": "functional"}, "Escherichia coli [5]": {"test_system": "Escherichia coli", "experiment": "Antibacterial activity against Escherichia coli transfected with Vibrio fischeri lux operon assessed as log reduction of bioluminescence at 20 uM incubated for 10 mins in dark followed by 36 J cm'-2 white light irradiation for 150 mins by luminometry relative to control", "assay_type": "functional"}, "Escherichia coli [6]": {"test_system": "Escherichia coli", "experiment": "Dark toxicity in recombinant Escherichia coli transfected with Vibrio fischeri lux operon at 5 uM after 10 mins by luminometry", "assay_type": "organism-based", "conditions": "in vivo"}}, "note": "Activity calls are given as the source filed them. No cut-off for these calls is given here.", "data": [{"compound": "CN1CC2c3nc(c(-c4c(F)c(F)c(F)c(F)c4F)c4ccc([nH]4)c(-c4c(F)c(F)c(F)c(F)c4F)c4nc(c(-c5c(F)c(F)c(F)c(F)c5F)c5[nH]c(c3-c3c(F)c(F)c(F)c(F)c3F)C3CN(C)CC53)C=C4)C2C1", "note": "(configuration not stated)", "values": [{"measurement": "FC", "setting": "Escherichia coli [1]", "value": 0.24}, {"measurement": "Activity", "setting": "Escherichia coli [2]", "value": "Non-toxic"}]}, {"compound": "CC1(C)Cc2cc3[nH]c(cc4nc(cc5[nH]c(cc1n2)cc5C(=O)NCCC[N+](C)(CCC[N+](C)(C)C)CCC[N+](C)(C)C)CC4(C)C)cc3C(=O)NCCC[N+](C)(CCC[N+](C)(C)C)CCC[N+](C)(C)C", "values": [{"measurement": "FC", "setting": "Escherichia coli [3]", "value": 6}, {"measurement": "FC", "setting": "Staphylococcus aureus", "value": 6}]}, {"compound": "C[N+]1(C)CC2c3nc(c(-c4c(F)c(F)c(F)c(F)c4F)c4ccc([nH]4)c(-c4c(F)c(F)c(F)c(F)c4F)c4nc(c(-c5c(F)c(F)c(F)c(F)c5F)c5ccc([nH]5)c3-c3c(F)c(F)c(F)c(F)c3F)C=C4)C2C1.[I-]", "note": "(configuration not stated)", "values": [{"measurement": "FC", "setting": "Escherichia coli [4]", "value": 0.77}, {"measurement": "Activity", "setting": "Escherichia coli [5]", "value": "Active"}, {"measurement": "Activity", "setting": "Escherichia coli [2]", "value": "Non-toxic"}]}, {"compound": "CN1CC2c3nc(c(-c4c(F)c(F)c(F)c(F)c4F)c4ccc([nH]4)c(-c4c(F)c(F)c(F)c(F)c4F)c4nc(c(-c5c(F)c(F)c(F)c(F)c5F)c5ccc([nH]5)c3-c3c(F)c(F)c(F)c(F)c3F)C=C4)C2C1", "note": "(configuration not stated)", "values": [{"measurement": "FC", "setting": "Escherichia coli [4]", "value": 0.57}, {"measurement": "Activity", "setting": "Escherichia coli [6]", "value": "Non-toxic"}]}, {"compound": "C[N+]1(C)CC2c3nc(c(-c4c(F)c(F)c(F)c(F)c4F)c4ccc([nH]4)c(-c4c(F)c(F)c(F)c(F)c4F)c4nc(c(-c5c(F)c(F)c(F)c(F)c5F)c5[nH]c(c3-c3c(F)c(F)c(F)c(F)c3F)C3C[N+](C)(C)CC53)C=C4)C2C1.[I-].[I-]", "note": "(configuration not stated)", "values": [{"measurement": "FC", "setting": "Escherichia coli [4]", "value": ">5"}, {"measurement": "FC", "setting": "Escherichia coli [5]", "value": 6.1}, {"measurement": "Activity", "setting": "Escherichia coli [2]", "value": "Non-toxic"}]}]}
